ChEMBL document CHEMBL1138671, “Structure-based design, synthesis, and evaluation of conformationally constrained mimetics of the second mitochondria-derived activator of caspase that target the X-linked inhibitor of apoptosis protein/caspase-9 interaction site” (J Med Chem, 2004)
pKi: −log10 of the molar value.

Target: E3 ubiquitin-protein ligase XIAP (Homo sapiens, UniProt P98170)
Assay: Binding affinity for the recombinant XIAP BIR3 protein in displacing a fluorescently labeled Smac peptide

Sequence of E3 ubiquitin-protein ligase XIAP (P98170 whole entry): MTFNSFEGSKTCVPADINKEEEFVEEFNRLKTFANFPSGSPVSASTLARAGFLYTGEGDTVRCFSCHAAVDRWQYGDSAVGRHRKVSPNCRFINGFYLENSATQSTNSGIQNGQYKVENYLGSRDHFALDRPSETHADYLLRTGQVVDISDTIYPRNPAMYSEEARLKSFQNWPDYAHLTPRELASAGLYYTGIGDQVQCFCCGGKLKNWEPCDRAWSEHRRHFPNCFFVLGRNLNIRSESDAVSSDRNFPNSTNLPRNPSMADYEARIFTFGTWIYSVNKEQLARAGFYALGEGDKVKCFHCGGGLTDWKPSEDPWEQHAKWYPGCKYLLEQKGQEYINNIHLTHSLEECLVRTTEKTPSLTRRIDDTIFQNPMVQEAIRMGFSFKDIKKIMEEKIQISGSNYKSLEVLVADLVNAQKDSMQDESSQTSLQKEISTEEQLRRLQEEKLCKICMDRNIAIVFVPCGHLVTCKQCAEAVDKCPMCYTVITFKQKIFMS

pKi	SMILES
< 4.00	CCC[C@H](N)C(=O)NC1CC[C@H]2CC[C@@H](C(=O)NCc3ccccc3)N2C1=O (some centres not stated)
< 4.00	C[C@H](N)C(=O)NC1CC[C@H]2CC[C@@H](C(=O)Nc3ccccc3)N2C1=O (some centres not stated)
